Target: T1, human calcium-sensing receptor (CaSR) (Homo sapiens, UniProt P41180)
T1 construct: expressed in transfected cells
T1 sequence (P41180 20-1078): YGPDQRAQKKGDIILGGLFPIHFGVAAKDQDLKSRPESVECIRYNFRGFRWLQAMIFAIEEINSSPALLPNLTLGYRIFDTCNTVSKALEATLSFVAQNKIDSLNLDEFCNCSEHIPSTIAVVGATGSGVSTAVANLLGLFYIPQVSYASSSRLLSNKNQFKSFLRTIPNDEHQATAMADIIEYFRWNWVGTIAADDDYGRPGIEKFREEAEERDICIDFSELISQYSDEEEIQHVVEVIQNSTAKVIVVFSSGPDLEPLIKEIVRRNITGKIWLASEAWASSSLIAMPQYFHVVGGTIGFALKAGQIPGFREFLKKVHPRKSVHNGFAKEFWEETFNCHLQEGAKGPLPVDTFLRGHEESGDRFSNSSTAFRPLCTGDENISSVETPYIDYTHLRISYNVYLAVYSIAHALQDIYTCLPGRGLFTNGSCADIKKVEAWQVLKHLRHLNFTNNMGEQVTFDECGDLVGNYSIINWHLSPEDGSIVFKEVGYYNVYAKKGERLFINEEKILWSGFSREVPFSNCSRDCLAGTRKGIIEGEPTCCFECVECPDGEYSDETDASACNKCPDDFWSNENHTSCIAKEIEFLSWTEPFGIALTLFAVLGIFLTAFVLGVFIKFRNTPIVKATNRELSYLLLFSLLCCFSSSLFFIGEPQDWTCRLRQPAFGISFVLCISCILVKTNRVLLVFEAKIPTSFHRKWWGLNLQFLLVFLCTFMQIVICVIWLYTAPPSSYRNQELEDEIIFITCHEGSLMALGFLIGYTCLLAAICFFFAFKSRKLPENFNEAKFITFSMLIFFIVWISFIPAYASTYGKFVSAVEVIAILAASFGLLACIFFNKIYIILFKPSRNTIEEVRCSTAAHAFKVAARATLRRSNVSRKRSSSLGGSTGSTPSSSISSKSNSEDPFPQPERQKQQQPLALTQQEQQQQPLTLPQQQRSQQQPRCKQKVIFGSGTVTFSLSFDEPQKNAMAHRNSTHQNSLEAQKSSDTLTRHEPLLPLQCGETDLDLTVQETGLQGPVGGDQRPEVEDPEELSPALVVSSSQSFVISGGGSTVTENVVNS
Assay: intracellular Ca assay, CaSR antagonist activity in HEK293/hCaSR cells
Format: cell-based
Settings: Fura2-AM, inhibition of response to calcium chloride ligand solution, read-out: IC50 values according to the intracellular Ca assay (CaSR antagonist activity)
Protocol: HEK293 cells stably expressing human calcium-sensing receptor (CaSR) (termed HEK293/hCaSR cells) were used. HEK293/hCaSR cells were cultured in a culture medium [DMEM medium containing 0.5 mg/mL Geneticin, 50 Unit/mL penicillin, 50 μg/mL streptomycin and 10% fetal bovine serum (FBS), all manufactured by Invitrogen] to semiconfluent in an incubator at 37° C. under 5% carbon dioxide atmosphere.
Cultured cells were washed with phosphate buffered saline (PBS(−), manufactured by Dainippon Sumitomo Pharmaceutical Company) which had been prewarmed to 37° C., added with PBS(−) containing 10 mM ethylenediamine tetraacetic acid (EDTA), and then incubated in an incubator at 37° C. for 10 minutes. After adding the culture medium to separate the cells, cell suspension was transferred to a centrifuge tube. Cells were collected by centrifuge at 1,500 rpm for 3 minutes, and resuspended in Ca assay buffer [20 mM HEPES buffer (pH 7.4), 115 mM sodium chloride, 5.4 mM potassium chloride, 0.8 mM magnesium chloride, 0.8 mM calcium chloride, 13.8 mM D(+)-glucose (all manufactured by Wako Pure Chemicals) and 0.1% bovine serum albumin (manufactured by SIGMA)] containing 0.2% Pluronic F-127 (manufactured by Molecular Probes) and […] Fura2-AM (manufactured by DOJINDO LABORATORIES) to obtain a cell suspension of 5×10^6 cells/mL. After incubating at 37° C. for 30 minutes, the cells were washed twice with the Ca assay buffer and suspended in the same buffer to obtain a cell suspension of 1×10^6 cells/60 μL. 60 μL of the cell suspension was aliquoted to each well of a 96 well UV microplate (manufactured by Corning Co.) to give a cell plate.
The test compound was diluted with the Ca assay buffer to five times the final concentration and then 80 μL of the diluted compound was applied to each well of a 96 well round bottomed microplate (manufactured by Corning Co.) to give a sample plate. 80 μL of the Ca assay buffer containing 7.5 mM calcium chloride (i.e., ligand solution) was applied to each well of a 96 well round bottomed microplate to give a ligand plate. Then, thus prepared sample plate, ligand plate, and the cell plate were placed in Functional Drug Screening System (FDSS) 4000 (manufactured by Hamamatsu Photonics K.K.) which had been preswitched on and prewarmed to 37° C. Measurements were then carried out as follows. After incubating the cell plate for 180 seconds, fluorescence intensity was measured every two seconds (excitation wavelength; 340 nm and 380 nm, measurement wavelength; 500 nm). After the measurement for 40 seconds, 20 μL of the test compound solution from the sample plate was added to the cell plate, followed by continuous measurement for 160 seconds. Then, 20 μL of the ligand solution from the ligand plate was added to the cell plate, followed by continuous measurement for 100 seconds.
Amount of change in intracellular Ca concentration is indicated as a peak height of the ratio of the fluorescence intensity with excitation of 340 nm and 380 nm (i.e., fluorescence intensity with excitation at 340 nm/fluorescence intensity with excitation at 380 nm) that is obtained from the difference between the maximum ratio after adding the ligand solution and the ratio before adding the ligand solution. Further, when the peak height obtained from the Ca assay buffer containing no test compound has inhibition ratio of 0% while the peak height obtained from the Ca assay buffer containing no calcium chloride as a ligand solution has inhibition ratio of 100%, inhibition ratio for each test compound (i.e., CaSR antagonist activity) was calculated.

SMILES | IC50
CN(C[C@H](O)CNC(C)(C)Cc1ccc2ccccc2c1)S(=O)(=O)c1ccccc1-c1cccc(C=CC(=O)O)c1 [Exp. 3-1, (R)-3-(2′-(N-(2-hydroxy-3-(2-methyl-1-(naphthalen-2-yl)propan-2-ylamino)propyl)-N-methylsulfamoyl)biphenyl-3-yl)acrylic acid] | 0.3 to 1 µM
CN(C[C@H](O)CNC(C)(C)Cc1ccc2ccccc2c1)S(=O)(=O)c1cccc(-c2cccc(C(=O)O)c2)c1 [Exp. 3-5, (R)-3′-(N-(2-hydroxy-3-(2-methyl-1-(naphthalen-2-yl)propan-2-ylamino)propyl)-N-methylsulfamoyl)biphenyl-3-carboxylic acid] | ≤ 0.3 µM
CN(C[C@H](O)CNC(C)(C)Cc1ccc2ccccc2c1)S(=O)(=O)c1cccc(-c2ccc(C(=O)O)cc2)c1 [Exp. 3-6, (R)-3′-(N-(2-hydroxy-3-(2-methyl-1-(naphthalen-2-yl)propan-2-ylamino)propyl)-N-methylsulfamoyl)biphenyl-4-carboxylic acid] | 0.3 to 1 µM
Cc1ccc(-c2cccc(S(=O)(=O)N(C)C[C@H](O)CNC(C)(C)Cc3ccc4ccccc4c3)c2)cc1C(=O)O [Exp. 3-7, (R)-3′-(N-(2-hydroxy-3-(2-methyl-1-(naphthalen-2-yl)propan-2-ylamino)propyl)-N-methylsulfamoyl)-4-methylbiphenyl-3-carboxylic acid] | 0.3 to 1 µM
Cc1cc(-c2cccc(S(=O)(=O)N(C)C[C@H](O)CNC(C)(C)Cc3ccc4ccccc4c3)c2)ccc1C(=O)O [Exp. 3-8, (R)-3′-(N-(2-hydroxy-3-(2-methyl-1-(naphthalen-2-yl)propan-2-ylamino)propyl)-N-methylsulfamoyl)-3-methylbiphenyl-4-carboxylic acid] | ≤ 0.3 µM
CN(C[C@H](O)CNC(C)(C)Cc1ccc2ccccc2c1)S(=O)(=O)c1cccc(-c2ccc(C(=O)O)c(F)c2)c1 [Exp. 3-9, (R)-3-fluoro-3′-(N-(2-hydroxy-3-(2-methyl-1-(naphthalen-2-yl)propan-2-ylamino)propyl)-N-methylsulfamoyl)biphenyl-4-carboxylic acid] | 0.3 to 1 µM
CN(C[C@H](O)CNC(C)(C)Cc1ccc2ccccc2c1)S(=O)(=O)c1cccc(-c2ccc(C(=O)O)c(N)c2)c1 [Exp. 3-10, (R)-3-amino-3′-(N-(2-hydroxy-3-(2-methyl-1-(naphthalen-2-yl)propan-2-ylamino)propyl)-N-methylsulfamoyl)biphenyl-4-carboxylic acid] | ≤ 0.3 µM
CN(C[C@H](O)CNC(C)(C)Cc1ccc2ccccc2c1)S(=O)(=O)c1cccc(-c2ccc(C(=O)O)c(Cl)c2)c1 [Exp. 3-11, (R)-3-chloro-3′-(N-(2-hydroxy-3-(2-methyl-1-(naphthalen-2-yl)propan-2-ylamino)propyl)-N-methylsulfamoyl)biphenyl-4-carboxylic acid] | 0.3 to 1 µM
CN(C[C@H](O)CNC(C)(C)Cc1ccc2ccccc2c1)S(=O)(=O)c1cccc(-c2ccc(C(=O)O)cc2F)c1 [Exp. 3-12, (R)-2-fluoro-3′-(N-(2-hydroxy-3-(2-methyl-1-(naphthalen-2-yl)propan-2-ylamino)propyl)-N-methylsulfamoyl)biphenyl-4-carboxylic acid] | 0.3 to 1 µM
CN(C[C@H](O)CNC(C)(C)Cc1ccc2ccccc2c1)S(=O)(=O)c1cccc(-c2cc3c(c(C(=O)O)c2)OCC3)c1 [Exp. 3-13, (R)-5-(3-(N-(2-hydroxy-3-(2-methyl-1-(naphthalen-2-yl)propan-2-ylamino)propyl)-N-methylsulfamoyl)phenyl)-2,3-dihydrobenzofuran-7-carboxylic acid] | 1 to 3 µM
CN(C[C@H](O)CNC(C)(C)Cc1ccc2ccccc2c1)S(=O)(=O)c1cccc(-c2ccc(C=CC(=O)O)cc2)c1 [Exp. 3-14, (R)-3-(3′-(N-(2-hydroxy-3-(2-methyl-1-(naphthalen-2-yl)propan-2-ylamino)propyl)-N-methylsulfamoyl)biphenyl-4-yl)acrylic acid] | 0.3 to 1 µM
CN(C[C@H](O)CNC(C)(C)Cc1ccc2ccccc2c1)S(=O)(=O)c1cccc(-c2ccc(CCC(=O)O)cc2)c1 [Exp. 3-15, (R)-3-(3′-(N-(2-hydroxy-3-(2-methyl-1-(naphthalen-2-yl)propan-2-ylamino)propyl)-N-methylsulfamoyl)biphenyl-4-yl)propionic acid] | 0.3 to 1 µM

Next, values leading:

IC50 | SMILES
1 to 3 µM | CN(C[C@H](O)CNC(C)(C)Cc1ccc2ccccc2c1)S(=O)(=O)c1cccc(-c2cccc(C=CC(=O)O)c2)c1 [Exp. 3-16, (R)-3-(3′-(N-(2-hydroxy-3-(2-methyl-1-(naphthalen-2-yl)propan-2-ylamino)propyl)-N-methylsulfamoyl)biphenyl-3-yl)acrylic acid]
0.3 to 1 µM | CN(C[C@H](O)CNC(C)(C)Cc1ccc2ccccc2c1)S(=O)(=O)c1cccc(-c2cc(N)cc(C(=O)O)c2)c1 [Exp. 3-17, (R)-5-amino-3′-(N-(2-hydroxy-3-(2-methyl-1-(naphthalen-2-yl)propan-2-ylamino)propyl)-N-methylsulfamoyl)biphenyl-3-carboxylic acid]
1 to 3 µM | CN(C[C@H](O)CNC(C)(C)Cc1ccc2ccccc2c1)S(=O)(=O)c1cccc(-c2cc(C(=O)O)cc([N+](=O)[O-])c2)c1 [Exp. 3-18, (R)-3′-(N-(2-hydroxy-3-(2-methyl-1-(naphthalen-2-yl)propan-2-ylamino)propyl)-N-methylsulfamoyl)-5-nitrobiphenyl-3-carboxylic acid]
0.3 to 1 µM | CN(C[C@H](O)CNC(C)(C)Cc1ccc2ccccc2c1)S(=O)(=O)c1cccc(-c2ccc(C(=O)O)cc2N)c1 [Exp. 3-19, (R)-2-amino-3′-(N-(2-hydroxy-3-(2-methyl-1-(naphthalen-2-yl)propan-2-ylamino)propyl)-N-methylsulfamoyl)biphenyl-4-carboxylic acid]
1 to 3 µM | CN(C[C@H](O)CNC(C)(C)Cc1ccc2ccccc2c1)S(=O)(=O)c1cccc(-c2ccc(C(=O)O)cc2[N+](=O)[O-])c1 [Exp. 3-20, (R)-3′-(N-(2-hydroxy-3-(2-methyl-1-(naphthalen-2-yl)propan-2-ylamino)propyl)-N-methylsulfamoyl)-2-nitrobiphenyl-4-carboxylic acid]

Reference: US8039514B2, “Sulfonamide compounds and use thereof” (Asahi Kasei Pharma Corporation, priority 2008, dated 2011)
